Assay results: paper PMC7822874, “Chemoprotective antimalarials identified through quantitative high-throughput screening of Plasmodium blood and liver stage parasites” (Scientific Reports, 2021)
Values joined by “and” are separate entries in the source; they are usually repeats but may differ in a detail not shown here. Equal entries are not always repeated. Where two headings read alike, the source gives them in different places.

How the values were obtained:
[1] = tested on: T1, Plasmodium falciparum Dd2-attB (parental line), asexual blood stages; assay: microbe, parasite or virus in culture; design: species or system P. falciparum Dd2-attB in human erythrocytes; SYBR Green-I proliferation assay, Dd2-attB parental line, asexual blood stages; details: 72 h; for AC50: Plasmodium falciparum, DD2, Erythrocyte, read-out: Calculated / Average Log AC50 (M), mean of replicates, 72 h (converted)
T1 construct: Dd2-attB, the isogenic parental line

[2] = tested on: T1, Plasmodium falciparum Dd2-attB (parental line), asexual blood stages; assay: microbe, parasite or virus in culture; design: replicate k of 3 (each line is one of three independent assays; the three lines of one compound and parasite line follow each other); details: n = 1; for AC50: Plasmodium falciparum, DD2, 72 h, read-out: Individual replicates / Log AC50 (converted); for Individual replicates / Log AC50 (M): 72 h
Summary of the method: (§1)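 Three independent runs, compound subset only; parental vs ScDHODH line compared by two-sided Student's t-test.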

[3] = tested on: T2, Plasmodium falciparum Dd2-attB-ScDHODH (transgenic line expressing yeast DHODH), asexual blood stages; assay: organism not typed; design: replicate k of 3 (each line is one of three independent assays; the three lines of one compound and parasite line follow each other)
T2 construct: Dd2-attB-ScDHODH, the transgenic line that expresses yeast DHODH
Summary of the method: as §1

[4] = 72 h; n = 1; read-out: Individual replicates / Log AC50 (converted)

Compound	AC50 [1] [M]	AC50 [2] [µM]	Individual replicates / Log AC50 (M) [2]	Individual replicates / Log AC50 (M) ([3]; 72 h, n = 1)	AC50 [3, 4] [µM]	Individual replicates / Log AC50 (M) ([3]; 72 h; n = 1)	Calculated / Average Log AC50 (M) ([1]; mean of replicates, inhibitor, Calculated / Average Log AC50 (M))
O=C(N[C@H]1CCN(c2cc(-c3ccc(Cl)cc3)[nH]n2)C1)c1ccccc1 [NCGC00489097-01]	1.19e-05	6.33					
Oc1ccc(COC2CCN(Cc3ccccc3)C2)c2cccnc12 (centres unmarked) [NCGC00183382-01]	7.97e-06		-5.2986 Log AC50 (M) and -5.1986 Log AC50 (M) and -4.7986 Log AC50 (M)				
CCCN1C(CC(C)C)=N[S+](=O)([O-])c2cc(NC(=O)c3ccccc3)ccc21 [NCGC00510420-01]	4.48e-07		-6.5486 Log AC50 (M) and -6.1986 Log AC50 (M) and -6.2986 Log AC50 (M)	-6.0486 Log AC50 (M) and -5.5486 Log AC50 (M) and -5.8486 Log AC50 (M)			
CCOC(=O)c1ccnc(-c2ncn(C)c2-c2ccc(OC)cc2)c1 [NCGC00409816-01]	8.94e-06		-5.1986 Log AC50 (M) and -4.8486 Log AC50 (M) and -5.0986 Log AC50 (M)	-4.9486 Log AC50 (M) and -4.7986 Log AC50 (M)	7.97		
COc1ccc(-c2c(-c3cc([N+](=O)[O-])ccn3)ncn2C)cc1 [NCGC00414991-01]	1.22e-05	14.2		-4.7986 Log AC50 (M)	8.94		
CCc1cccc(C)c1Nc1c(-c2ccc(N(C)C)cc2)nc2ncccn12 [NCGC00107648-03]	1.93e-05	15.9					
O=C(O)c1c2ccc(C(=O)N3CCOCC3)cc2n2ccccc12 [NCGC00390822-01]	2e-06	2.83	-5.7986 Log AC50 (M) and -5.7486 Log AC50 (M)	-5.5986 Log AC50 (M)	2.52		
CCN(CCN(C)C)C(=O)c1cc(OCc2ccc(Cl)cc2C)n(-c2cc(C#N)ccn2)n1 [NCGC00493248-01]	1.04e-05	15.9	-5.0486 Log AC50 (M) and -5.0986 Log AC50 (M)	-4.9486 Log AC50 (M) and -4.8486 Log AC50 (M)	11.3		
CCCOC(c1cc2nccc(C(=O)O)c2[nH]1)c1ccccc1Cl (centres unmarked) [NCGC00381656-01]	1.04e-05	7.97	-5.0486 Log AC50 (M) and -4.7986 Log AC50 (M)	-4.9486 Log AC50 (M)	15.9		
Cc1ccccc1Nc1c(-c2ccccc2O)nc2sccn12 [NCGC00105919-03]	1.08e-05	12.6	-4.8986 Log AC50 (M) and -5.0986 Log AC50 (M)	-4.8486 Log AC50 (M) and -5.0486 Log AC50 (M)	8.94		
O=[N+]([O-])c1ccccc1NCc1ccc(O)c2ncccc12 [NCGC00184896-01]	9.65e-06		-4.7986 Log AC50 (M) and -5.0986 Log AC50 (M) and -5.1486 Log AC50 (M)	-5.0486 Log AC50 (M)	12.6		
Oc1ccc(COCc2ccccc2)c2cccnc12 [MLS000034722-02]	1.13e-05	8.94	-4.8986 Log AC50 (M)		14.2	-4.8486 Log AC50 (M)	
O=C(O)c1ccnc(-n2ncc(C(OCCN3CCCCC3)c3ccccc3Cl)c2-c2cccc(-c3ccccc3)c2)c1 (centres unmarked) [NCGC00481639-01]			-5.3986 Log AC50 (M) and -5.5986 Log AC50 (M)	-4.9986 Log AC50 (M) and -5.1486 Log AC50 (M)			-5.482
CN(Cc1ccco1)Cc1ccc(O)c2ncccc12 [NCGC00183374-01]	1.47e-05	8.94		-4.7986 Log AC50 (M)	12.6		
COC(=O)c1ccnc(-c2cn(C)cn2)c1NC(=O)Cc1ccc(Cl)cc1 [NCGC00420786-01]	1.42e-05	17.8	-5.0486 Log AC50 (M) and -4.7486 Log AC50 (M)				
O=C(NC1CCN(C(=O)c2cc(-c3ccccc3)n[nH]2)C1)c1ccccc1 (centres unmarked) [NCGC00492307-01]	1.59e-05				14.2		
Cc1nn2c(c1-c1ccnn1C(C)C)N(Cc1ccccc1)CCC2 [NCGC00500003-01]	1.31e-05	8.94					
Cn1ccnc1CCOC(c1cc2nccc(C(=O)O)c2[nH]1)c1ccccc1Cl (centres unmarked) [NCGC00421835-01]	1.85e-05	15.9					
O=C(Nc1ccccc1F)c1nc([S+](=O)([O-])Cc2ccccc2F)ncc1Cl [NCGC00117146-03]	1.34e-05						
Cc1cccc(CN2CCCn3nc(C)c(-c4ccnn4C(C)C)c32)n1 [NCGC00499722-01]	1.65e-07						
O=C(O)c1ccc(O)c2ncc(N3CCC(N4CCOCC4)CC3)cc12 [NCGC00249380-01]	1.47e-05				17.8		
CCN(Cc1noc(CC(C)C)n1)C(=O)c1cnc(-c2ccccn2)nc1O [NCGC00438951-02]	1.85e-05						
Oc1ccc(CNc2ccccc2Br)c2cccnc12 [NCGC00184890-01]	1.78e-05						
CN(C)CCCNC(=O)c1ccccc1-c1cc(O)c2ncccc2c1 [NCGC00247753-01]	1.47e-05						
O=C(O)c1ccc(O)c2ncc(N3CCN(CCc4ccncc4)CC3)cc12 [NCGC00247761-01]	1e-05	8.94					
Cc1cccc(C)c1Nc1c(-c2cccs2)nc2ncccn12 [NCGC00107923-03]	5.03e-07						
CN1CCCC1CCOC(c1cccc(-c2ccccc2)c1)c1cc2nccc(C(=O)O)c2s1 (centres unmarked) [NCGC00481397-01]	1.42e-05						
C=C[S+](=O)([O-])N1CCCN(c2cc(NCCC(=O)O)nc(-c3ccccn3)n2)CC1 [NCGC00420874-01]	2.25e-05						
